Where two headings read alike, the source gives them in different places.
Legend:
[1] = system: CIA model rats; assay: Analgesic effect in rat collagen-induced arthritis (CIA) model, paw withdrawal threshold by Randall-Selitto method; type: in vivo; conditions: rats with CIA; 10 or 30 mg/kg oral once per day Days 22-28; measured Day 28
Method: The analgesic effect of Compound A on hypersensitivity to pain during the onset of arthritis in a rat CIA model was evaluated. Hypersensitivity to pain was evaluated using the paw withdrawal threshold (PWT) in relation to mechanical stimulus using the Randall-Selitto method.
Female LEW/CrlCrlj rats (Charles River Laboratories Japan, Inc.) were used for the experiment. A monohydrochloride of Compound A was dissolved in 0.5% methyl cellulose (MC) to prepare 2 mg/mL and 6 mg/mL solutions of Compound A. Type II collagen derived from joint bovine cartilage (Collagen Research Center) was dissolved in acetic acid to prepare a 2 mg/mL type II collagen solution. Equal volumes of the 2 mg/mL type II collagen solution and incomplete Freund's adjuvant were mixed to prepare a 1 mg/mL type II collagen emulsion.
On Day 1, the type II collagen emulsion was intradermally injected into the animals in the vehicle group, the Compound A 10 mg/kg administration group, and the Compound A 30 mg/kg administration group. On Day 8, the type II collagen emulsion was intradermally injected into the animals in the vehicle group, the Compound A 10 mg/kg administration group, and the Compound A 30 mg/kg administration group. […] On Day 28, the analgesic effect was measured using a Randall-Selitto analgesy-meter (TK-201, UNICOM). The means values and standard deviations of the PWT values for each group were calculated.

[2] = Trough plasma concentrations of Compound A in the human clinical study; type: in vivo; conditions: for concentration at 2 week / concentration at 4 week / concentration at 8 week / concentration at 12 week: human, plasma, oral, human plasma
Method: Compound A was evaluated in a multicenter, randomized, double-blind, placebo-controlled, parallel-group study in subjects with active rheumatoid arthritis. Subjects were randomized to receive orally placebo or an amount of monohydrochloride Compound A sufficient to provide 50 mg, 100 mg, 150 mg, or 200 mg of free form, once daily for 12 weeks.
In the human clinical study described in Example 3, blood samples were collected from subjects prior to dosing at weeks 2, 4, 8, and 12 for the quantification of plasma Compound A levels.

- Trough concentration, mean ratio relative to Compound A 50 mg QD at the same visit ([2]; 50 mg QD, 2 week): 1.00
- Trough concentration, mean ratio relative to Compound A 50 mg QD at the same visit ([2]; 50 mg QD, 4 week): 1.00
- Trough concentration, mean ratio relative to Compound A 50 mg QD at the same visit ([2]; 50 mg QD, 8 week): 1.00
- Trough concentration, mean ratio relative to Compound A 50 mg QD at the same visit ([2]; 50 mg QD, 12 week): 1.00
- Trough concentration, mean ratio relative to Compound A 50 mg QD at the same visit ([2]; 100 mg QD, 2 week): 1.52
- Trough concentration, mean ratio relative to Compound A 50 mg QD at the same visit ([2]; 100 mg QD, 4 week): 1.60
- Trough concentration, mean ratio relative to Compound A 50 mg QD at the same visit ([2]; 100 mg QD, 8 week): 1.77
- Trough concentration, mean ratio relative to Compound A 50 mg QD at the same visit ([2]; 100 mg QD, 12 week): 1.50
- Trough concentration, mean ratio relative to Compound A 50 mg QD at the same visit ([2]; 150 mg QD, 2 week): 2.51
- Trough concentration, mean ratio relative to Compound A 50 mg QD at the same visit ([2]; 150 mg QD, 4 week): 2.28
- Trough concentration, mean ratio relative to Compound A 50 mg QD at the same visit ([2]; 150 mg QD, 8 week): 2.10
- Trough concentration, mean ratio relative to Compound A 50 mg QD at the same visit ([2]; 150 mg QD, 12 week): 2.63
- Trough concentration, mean ratio relative to Compound A 50 mg QD at the same visit ([2]; 200 mg QD, 2 week): 3.89
- Trough concentration, mean ratio relative to Compound A 50 mg QD at the same visit ([2]; 200 mg QD, 4 week): 3.33
- Trough concentration, mean ratio relative to Compound A 50 mg QD at the same visit ([2]; 200 mg QD, 8 week): 3.11
- Trough concentration, mean ratio relative to Compound A 50 mg QD at the same visit ([2]; 200 mg QD, 12 week): 2.98
- concentration at 2 week ([2]; 50 mg, 50 mg QD, 2 week, BLQ (<2.00 ng/mL) set to 0, read-out: Trough Plasma Concentrations, Min-Max): 0 to 387 ng/mL
- concentration at 2 week ([2]; 50 mg, 50 mg QD, 2 week, read-out: Trough Plasma Concentrations, Mean (SD)): 134 ng/mL
- concentration at 2 week ([2]; 50 mg, 50 mg QD, 2 week, read-out: Trough Plasma Concentrations, Median): 118 ng/mL
- concentration at 4 week ([2]; 50 mg, 50 mg QD, 4 week, BLQ (<2.00 ng/mL) set to 0, read-out: Trough Plasma Concentrations, Min-Max): 0 to 356 ng/mL
- concentration at 4 week ([2]; 50 mg, 50 mg QD, 4 week, read-out: Trough Plasma Concentrations, Mean (SD)): 135 ng/mL
- concentration at 4 week ([2]; 50 mg, 50 mg QD, 4 week, read-out: Trough Plasma Concentrations, Median): 119 ng/mL
- concentration at 8 week ([2]; 50 mg, 50 mg QD, 8 week, BLQ (<2.00 ng/mL) set to 0, read-out: Trough Plasma Concentrations, Min-Max): 0 to 436 ng/mL
- concentration at 8 week ([2]; 50 mg, 50 mg QD, 8 week, read-out: Trough Plasma Concentrations, Mean (SD)): 129 ng/mL
- concentration at 8 week ([2]; 50 mg, 50 mg QD, 8 week, read-out: Trough Plasma Concentrations, Median): 108 ng/mL
- concentration at 12 week ([2]; 50 mg, 50 mg QD, 12 week, BLQ (<2.00 ng/mL) set to 0, read-out: Trough Plasma Concentrations, Min-Max): 0 to 531 ng/mL
- concentration at 12 week ([2]; 50 mg, 50 mg QD, 12 week, read-out: Trough Plasma Concentrations, Mean (SD)): 119 ng/mL
- concentration at 12 week ([2]; 50 mg, 50 mg QD, 12 week, read-out: Trough Plasma Concentrations, Median): 100 ng/mL
- concentration at 2 week ([2]; 100 mg, 100 mg QD, 2 week, BLQ (<2.00 ng/mL) set to 0, read-out: Trough Plasma Concentrations, Min-Max): 0 to 825 ng/mL
- concentration at 2 week ([2]; 100 mg, 100 mg QD, 2 week, read-out: Trough Plasma Concentrations, Mean (SD)): 204 ng/mL
- concentration at 2 week ([2]; 100 mg, 100 mg QD, 2 week, read-out: Trough Plasma Concentrations, Median): 191 ng/mL
- concentration at 4 week ([2]; 100 mg, 100 mg QD, 4 week, BLQ (<2.00 ng/mL) set to 0, read-out: Trough Plasma Concentrations, Min-Max): 0 to 650 ng/mL
- concentration at 4 week ([2]; 100 mg, 100 mg QD, 4 week, read-out: Trough Plasma Concentrations, Mean (SD)): 216 ng/mL
SMILES: C[C@@H](C(=O)N(C)c1ccc2cc(-c3n[nH]c4c3CCC(C)(C)C4)[nH]c2c1)N1CCOCC1 [Compound A, N-[2-(6,6-dimethyl-4,5,6,7-tetrahydro-1H-indazol-3-yl)-1H-indol-6-yl]-N-methyl-(2S)-2-(morpholin-4-yl)propanamide]
- hyperalgesia (paw withdrawal threshold to mechanical stimulus) [1]: attenuated hyperalgesia
- dose dependence and maintenance of mean trough concentrations ([2]; 50 mg to 200 mg once daily, weeks 2-12): Mean trough concentrations increased as dose increased from 50 mg to 200 mg and trough concentrations were maintained throughout the study
